Results reported in patent publication US20230293560A1, “METHOD FOR MODULATING THE BLADDER MICROBIOME TO IMPROVE BLADDER HEALTH” (Kimberly-Clark Worldwide, Inc., priority 2020, published 2023).

How the values were obtained:
E. faecalis = assay: Plate assay screening of prebiotics; format: cell-based, Enterococcus faecalis; set-up: key: ++: if growth and fermentation was equal to or greater than the positive control; +: if growth and fermentation was less than the positive control; +: if weak or no growth or fermentation; +^2: Bacteria demonstrated growth but no fermentation on the prebiotic; conditions: E. faecalis KC16-7171-3, Bladder; MRS-based agar with glucose substituted by prebiotic
Description: (§1) Most of the prebiotic compounds were initially tested in a high throughput assay screening process, described further in the Test Methods section herein, but three prebiotics (as noted in Table 3) were tested using a plate assay screening process as described in the Test Methods section herein. The prebiotics were tested against the commensal bacterial species of Lactobacillus crispatus, Lactobacillus gasseri, and Lactobacillus jensenii and against the pathogenic bacterial species of Streptococcus anginosus and Enterococcus faecalis as shown in Table 2. The bacterial species were taken from different sources, listed as culture collection, bladder, and vagina. […]
(§2) • 1. […] Bacteria were enumerated on each agar and color changes were recorded. […] Small colonies are counted as S. anginosus and large colonies are counted as L. crispatus. • 10. […]

L. crispatus = assay: Plate assay screening of prebiotics; format: cell-based, Lactobacillus crispatus; set-up: key: ++: if growth and fermentation was equal to or greater than the positive control; +: if growth and fermentation was less than the positive control; +: if weak or no growth or fermentation; +^2: Bacteria demonstrated growth but no fermentation on the prebiotic; conditions: MRS-based agar with glucose substituted by prebiotic
Description: as §1, §2

S. anginosus = assay: Plate assay screening of prebiotics; format: cell-based, Streptococcus anginosus; set-up: key: ++: if growth and fermentation was equal to or greater than the positive control; +: if growth and fermentation was less than the positive control; +: if weak or no growth or fermentation; +^2: Bacteria demonstrated growth but no fermentation on the prebiotic; conditions: S. anginosus KC18-1131-3B, Bladder; MRS-based agar with glucose substituted by prebiotic
Description: as §1, §2

L. jensenii = assay: Plate assay screening of prebiotics; format: cell-based, Lactobacillus jensenii; set-up: key: ++: if growth and fermentation was equal to or greater than the positive control; +: if growth and fermentation was less than the positive control; +: if weak or no growth or fermentation; +^2: Bacteria demonstrated growth but no fermentation on the prebiotic; conditions: L. jensenii KC17-4297-18, Bladder; MRS-based agar with glucose substituted by prebiotic
Description: as §1, §2

E. coli = assay: Additional prebiotic screening against E. coli (plate assay); format: cell-based, Escherichia coli
Source text: Additional screening of three prebiotic compounds of alpha-methyl-D-glucoside, isomaltulose, and alpha cyclodextrin was completed against pathogenic bacteria species Escherichia coli from both bladder and vaginal sources, as shown in Table 4. The growth of the bacterial species for this additional screening process against E. coli was not compared to growth of a control as in the screening process documented in Table 3, but was documented based on growth or no growth for the number of samples tested.
• 1. An in house bacterial agar was created based on MRS agar (Kaplan and Hutkins, 2000) where the glucose is substituted for the prebiotic to be tested (either dextran MW ˜6,000, alpha-cyclodextrin, glucomannan, or pectin), bromocresol purple was included as a pH indicator. • 2. Bacteria were enumerated on each agar and color changes were recorded. Method for Competition Assay (Modified from “In Vitro Evaluation of Nutrients that Selectively Confer a Competitive Advantage to Lactobacilli” Vongsa et al, Beneficial Microbes 2016) • 1. Create 2% w/v stock of prebiotic or positive control (glucose/dextrose) as described above. • 2. From a freezer stock subculture the bacteria twice into De Man, Rogosa and Sharpe (MRS) broth (BD Difco, Becton Dickinson, Franklin Lakes, NJ), 37° C., stationary, anaerobic, overnight. • 3. From the last subculture, plate onto an MRS agar plate for L. crispatus KC18-1173-1 or blood agar for S. anginosus KC18-1131-3B, grow 37° C., stationary, anaerobic, overnight. • 4. Create a bacterial suspension by using a sterile tipped swab to transfer colonies of bacteria into a PBS suspension blank to a 2 MacFarland for both species. • 5. Enumerate the starting culture. • 6. Add 9.8 mL of prebiotic media into a 15 mL conical tube. • 7. Add 100 μL of the diluted bacteria to the media, incubate at 37° C., anaerobic, 48 hours. • 8. Harvest 100 μL from the tube containing the prebiotic and plate onto MRS agar and tryptic soy agar (TSA). • 9. […] Small colonies are counted as S. anginosus and large colonies are counted as L. crispatus. • 10. […]

[1] = test system: commensal and pathogenic bacterial species; assay: Prebiotic screening, summary in words across species; format: cell-based; conditions: commensal (L. crispatus, L. gasseri, L. jensenii) and pathogenic (S. anginosus, E. faecalis) species
Procedure, shortened: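 Prebiotics at 2% w/v stock in API 50 CHL medium with bromocresol purple, inoculated with bacteria and read every 20 min for 24-48 h at OD430/590 (fermentation) and OD660 (growth), scored against a glucose control. Some tested on MRS-based agar with the prebiotic in place of glucose; competition assay with L. crispatus and S. anginosus incubated 48 h anaerobically at 37 °C, then enumerated on MRS and TSA.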

[2] = E. coli KC17-3970-4, Vagina, of 1 tested

For `OC[C@H]1O[C@@H]2O[C@H]3[C@H](O)[C@@H](O)[C@@H](O[C@H]4[C@H](O)[C@@H](O)[C@@H](O[C@H]5[C@H](O)[C@@H](O)[C@@H](O[C@H]6[C@H](O)[C@@H](O)[C@@H](O[C@H]7[C@H](O)[C@@H](O)[C@@H](O[C@H]1[C@H](O)[C@H]2O)O[C@@H]7CO)O[C@@H]6CO)O[C@@H]5CO)O[C@@H]4CO)O[C@@H]3CO` [Alpha Cyclodextrin, Alpha-Cyclodextrin], the “growth and fermentation vs positive control, Ef-2 (plate assay)” value (E. faecalis) was “+”, the “growth and fermentation vs positive control, Lc-2 (plate assay)” value (L. crispatus; L. crispatus KC16-7134-3C, Bladder) was “+” and the “growth and fermentation vs positive control, Lc-3 (plate assay)” value (L. crispatus; L. crispatus KC18-1173-1, Bladder) was “+^2”. For the same molecule, the “growth and fermentation vs positive control, Sa-2 (plate assay)” value (S. anginosus) was “+”, the “growth and fermentation vs positive control, Lj-1 (plate assay)” value (L. jensenii) was “+” and the “# fermented, Ec-3 (plate assay)” value (E. coli; [2]) was 0. For the same molecule, the “# grew, Ec-3 (plate assay)” value (E. coli; [2]) was 1, the “growth of E. coli Ec-3, in words” value (E. coli; the one E. coli species tested (Ec-3), vaginal source) was “did grow” and the “overall outcome of the screening of Table 3, in words” value [1] was “growing at least some of the commensal bacterial species and either having less growth than the positive control or almost no growth of the pathogenic bacterial species”.
